The structures appear in SMILES notation. Read-outs that look alike come from different tables or passages of the source.

Series [1] in a line: Side effects (gastric damage, platelet aggregation, steroid side effects).
Series [2] relates to developing adjuvant arthritis. The experiment in a line: Developing adjuvant arthritis. The class given is in vivo, rat. The settings on record: for ED50: Rattus norvegicus, po, 384 h, read-out: Developing Arthritis ED50 on Day 16. Here is the method: (§1) There were 5 animals in each drug-treated group. For developing adjuvant arthritis the drugs were administered in the diet from day 1 to day 16. For established adjuvant arthritis the drugs were administered from day 21 to day 42.

A short description of another series: Half life. The settings on record: in vivo.
For series [3] the following is noted: in vivo; cited from earlier work.
The next series is described as follows: Therapeutic index. The settings on record: in vivo.
A further series relates to immune response. The settings on record: in vivo; cited from earlier work.
Another series can be described thus: Antipyretic activity. The settings on record: in vivo.
The test system of the next series is lipoxygenase pathway. The experiment in a line: Inhibition of prostaglandin metabolism in vitro, lipoxygenase pathway. The class given is biochemical.
A further series deals with liver. The experiment in a line: Liver damage in animal models. The settings on record: in the animal models used. The class given is in vivo.
Series [4] relates to carrageenan pleurisy (3 hour pleural exudate volume). The experiment in a line: Duration of action of anti-inflammatory activity (Carrageenan Pleurisy Assay). Format: in vivo, rat. To be noted: for duration of action (time of drug administration prior to carrageenan injection at which inhibition of 3 hour pleural exudate volume declined to 40%): single oral pretreating dose. Here is the method: Following the procedure previously described by Vinegar et al. in Proc. Soc. Exp. Biol. Med., 143, 711 (1973) and recently modified (Vinegar et al., Eur. J. Rheum. Inflam. 1, 204 (1978)) the acute anti-inflammatory activity of 3-deazaadenosine was compared with that of known anti-inflammatory drugs. The average 3 hr exudate volume for each drug-treated group was determined and the % inhibition relative to solvent-fed control animals calculated, the ED50 (mg/kg of body wt) being the dose required to reduce the 3 hr exudate volume by 50%. There were 5 animals in each drug-treated group and the control group.
Duration of action of anti-inflammatory activity of 3-deazaadenosine
By means of the Carrageenan Pleurisy Assay of Example 1 the duration of action of the test compounds after a single oral pretreating dose was determined. For 3-deazaadenosine the effect lasted for 14.9 hours at 6 mg/kg (p.o.) whilst for aspirin (150 mg/kg p.o.) and acetaminophen (220 mg/kg p.o.) the effect lasted […] and 2 hours, respectively. This value represents the time (hours) of drug administration prior to the injection of carrageenan in which the inhibition of the 3 hour pleural exudate volume declined to 40%.

Another series is described as follows: Water solubility. The class given is physicochemical.
For another series, the system named is cyclooxygenase pathway. The experiment in a line: Inhibition of prostaglandin metabolism in vitro, cyclooxygenase pathway. The class given is biochemical.
Series [5] has as its system established adjuvant arthritis. The experiment in a line: Established adjuvant arthritis. The class given is in vivo, rat. The settings on record: for ED25: Rattus norvegicus, po, 1008 h, read-out: Established Arthritis ED25 on Day 42. The method, then: as §1
A further series deals with inflammation. The experiment in a line: Anti-inflammatory effectiveness by route. Format: in vivo. The settings on record: result in words.
Series [6] has as its system carrageenan pleurisy (3 hr exudate volume). Kind of series: Local anti-inflammatory activity: Carrageenan Pleurisy Assay (CPA), intrapleural. The settings on record: 3 hr Vol. The class given is in vivo, rat. An excerpt:
Local Anti-Inflammatory Activity of 3-Deazaadenosine: Carrageenan Pleurisy Assay (CPA)
Following the procedure described by Vinegar et al., Eur. J. Rheum. Inflam. […] There were 5 animals in each drug-treated group and the control group.

A further series is described as follows: Analgesic activity. To be noted: in vivo.

Turning to `Nc1nccc2c1ncn2[C@@H]1O[C@H](CO)[C@@H](O)[C@H]1O` [3-Deazaadenosine, 4-amino-1-β-D-ribofuranosyl-1H-imidazo[4,5-c]-pyridine], in [1], the “side effects of the anti-inflammatory steroids” value is “free of the side effects of the anti-inflammatory steroids”. In addition, the “side effects associated with prostaglandin inhibitors (gastric damage, inhibition of platelet aggregation)” value in series [1] (inferred from lack of inhibition of prostaglandin metabolism) is reported as “free of the side effects”. For the same compound, the ED50 in [2] (in diet from day 1 to day 16) stood at 8 ± 2.8 mg/kg; in series [6], 0.05 mg/rat. In addition, the “inhibition of developing adjuvant arthritis” value in [2] (result in words) was “inhibit both developing and established adjuvant arthritis”. Also, the half life result in the series “Half life” was “short”. Besides, in series [3], the “dose required for antiviral activity” value is recorded as 100-200 mg/kg per day. Further, the therapeutic index result in “Therapeutic index” was “high”. Also, in the series on immune response, the “dose required for immunesuppression” value is given as “more than 30 mg/kg”. In “Antipyretic activity”, the antipyretic activity entry is listed as “not antipyretic”. Also, the “inhibition of prostaglandin metabolism via lipoxygenase pathway” value in the series on lipoxygenase pathway was “does not inhibit”. For the same compound, the liver damage entry with liver is listed as “does not cause liver damage”. For the same compound, in series [4] (6 mg/kg p.o.), the “duration of action (time of drug administration prior to carrageenan injection at which inhibition of 3 hour pleural exudate volume declined to 40%)” value amounted to 14.9 h. The duration of action result in series [4] (general statement, no dose given) is “about 15 hours”. Also, in the series “Water solubility”, the water solubility result is given as “high”. The “inhibition of prostaglandin metabolism via cyclooxygenase pathway” value with cyclooxygenase pathway is recorded as “does not inhibit”. The ED25 in series [5] (from day 21 to day 42, parentheses indicate an approximate value) is roughly 18 mg/kg/day. Moreover, the “inhibition of established adjuvant arthritis” value in series [5] (result in words) is “inhibit both developing and established adjuvant arthritis”. The “anti-inflammatory effectiveness by route” value in the series on inflammation was “effective orally, systemically and locally”. Moreover, in “Analgesic activity”, the “analgesic activity per se” value is reported as “has not analgesic activity per se”.

On to `CC(=O)Oc1ccccc1C(=O)O` [Aspirin, reference compound], for which the ED50 came out at 150 ± 53.1 mg/kg in series [2] and 0.04 mg/rat in series [6]. In addition, the “duration of action (time of drug administration prior to carrageenan injection at which inhibition of 3 hour pleural exudate volume declined to 40%)” value in series [4] (150 mg/kg p.o.) stood at 35 h. Further, in series [5], the ED25 was less than 150 mg/kg/day.

In series [6], `C[C@]12CCC(=O)C=C1CC[C@@H]1[C@@H]2[C@@H](O)C[C@@]2(C)[C@H]1CC[C@]2(O)C(=O)CO` [Hydrocortisone] yielded an ED50 of less than 0.1 mg/rat.

For `C[C@]12C=CC(=O)C=C1CC[C@@H]1[C@@H]2[C@@H](O)C[C@@]2(C)[C@H]1CC[C@]2(O)C(=O)CO` [Prednisolone, reference compound], the ED50 in [2] turned out to be 1 mg/kg. Further, in series [5], the ED25 is 0.2 mg/kg/day.

Take `CC(=O)Nc1ccc(O)cc1` [acetaminophen, reference compound]: the liver damage result with liver is listed as “cause liver damage”. Moreover, the “duration of action (time of drug administration prior to carrageenan injection at which inhibition of 3 hour pleural exudate volume declined to 40%)” value in series [4] (220 mg/kg p.o.) turned out to be 2 h.

(Values after patent publication US4322411A, “Anti-inflammatory nucleosides” (Burroughs Wellcome Co., priority 1980, dated 1982).)
